{"source": "patent US20210215714A1", "about": "“COMPLEMENT ALTERNATIVE PATHWAY-ASSOCIATED NEPHROPATHY BIOMARKERS” (Achillion Pharmaceuticals, Inc., priority 2018, published 2021)", "key": {"AP activity": {"system": "AP activity", "assay": "rabbit erythrocyte hemolysis (AP activity in vitro)", "type": "cell-based", "details": "Oryctolagus cuniculus"}, "Bb": {"system": "Bb", "assay": "Phase 2a study: Bb levels in plasma", "type": "in vivo, human", "details": "14-day treatment, patients A-F", "description": "(§1) Systemic complement proteins were measured in serum and plasma including serum Ba, plasma Bb, serum C3, serum Factor D, serum C4, and % Fragment C3."}, "C3": {"system": "C3", "assay": "Phase 2a study: C3 levels in serum", "type": "in vivo, human", "details": "14-day treatment, patients A-F", "description": "as §1\n(§2) C3 levels in serum were measured using a quantitative sandwich enzyme immunoassay technique. A monoclonal antibody specific for human C3 was pre-coated onto a micro-assay plate. Standards and samples were pipetted into the wells and any C3 present was bound by the immobilized antibody. After washing away any unbound substances, an enzyme-linked polyclonal antibody specific for human C3 was added to the wells. Following a wash to remove any unbound antibody-enzyme reagent, a substrate solution was added to the wells and color develops in proportion to the amount of C3 bound in the initial step. The color development was stopped and the intensity of the color was measured. […] Patients E and F show similar results."}, "C3b/iC3b": {"system": "C3b/iC3b", "assay": "Phase 2a study: % fragment C3", "type": "in vivo, human", "details": "14-day treatment, patients A-F", "description": "as §1, §2"}, "C4": {"system": "C4", "assay": "Phase 2a study: C4 levels in serum", "type": "in vivo, human", "details": "14-day treatment, patients A-F", "description": "as §1\nC4 levels in serum were measured using a quantitative sandwich enzyme immunoassay technique. A monoclonal antibody specific for human C4 was pre-coated onto a micro-assay plate. Standards and samples were pipetted into the wells and any C4 present was bound by the immobilized antibody. After washing away any unbound substances, an enzyme-linked polyclonal antibody specific for human C4 was added to the wells. Following a wash to remove any unbound antibody-enzyme reagent, a substrate solution was added to the wells and color develops in proportion to the amount of C4 bound in the initial step. The color development was stopped and the intensity of the color was measured spectrophotometrically at 450 nm."}}, "data": [{"smiles": "CC(=O)c1nn(CC(=O)N2C[C@H](F)C[C@H]2C(=O)Nc2cccc(Br)n2)c2ccc(-c3cnc(C)nc3)cc12", "note": "[Compound 1, (2S,4R)-1-(2-(3-acetyl-5-(2-methylpyrimidin-5-yl)-1H-indazol-1-yl)acetyl)-N-(6-bromopyridin-2-yl)-4-fluoropyrrolidine-2-carboxamide]", "values": [{"measurement": "IC50", "setting": "AP activity", "value": 27, "unit": "nM"}, {"measurement": "Plasma Bb", "setting": "Bb", "value": "reduced"}, {"measurement": "Serum C3", "setting": "C3", "value": "increased"}, {"measurement": "% fragment C3", "setting": "C3b/iC3b", "value": "reduced"}, {"measurement": "Serum C4", "setting": "C4", "value": "remained unchanged"}]}]}
